# Source: patent US20250074920A1, “MACROCYCLIC COMPOUNDS AND USE AS KINASE INHIBITORS” (BLOSSOMHILL THERAPEUTICS, INC., priority 2022, published 2025)
# pKd: −log10 of the molar value.
# How the values were obtained:
# Assay in all cases: KINOMEscan kinase binding assay
# [1] = system: ABL1(F317I)-nonphosphorylated; settings: at 1 μM
# How it was run: (§1)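 Immobilized-ligand competition, qPCR-quantified. Kinase sources: T7 phage lysates from BL21-type E. coli, or HEK-293 expression plus DNA tag. Results expressed as % Ctrl (lower = stronger binding) and as Kd from capture versus concentration curves.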
# [2] = system: ABL1(F317L)-nonphosphorylated; settings: at 1 μM
# How it was run: as §1
# [3] = system: ABL1(F317L)-phosphorylated; settings: at 1 μM
# How it was run: as §1
# [4] = system: ABL1(Q252H)-phosphorylated; settings: at 1 μM
# How it was run: as §1
# [5] = system: ABL1(Y253F)-phosphorylated; settings: at 1 μM
# How it was run: as §1
# [6] = system: ABL1-nonphosphorylated; settings: at 1 μM
# How it was run: as §1
# [7] = system: ALK; settings: at 1 μM
# How it was run: as §1
# [8] = system: BMX; settings: at 1 μM
# How it was run: as §1
# [9] = system: CSF1R-autoinhibited; settings: at 1 μM
# How it was run: as §1
# [10] = system: DDR1; settings: at 1 μM
# How it was run: as §1
# [11] = system: EGFR(L747-E749del, A750P); settings: at 1 μM
# How it was run: as §1
# [12] = system: EGFR(L747-S752del, P753S); settings: at 1 μM
# How it was run: as §1
# [13] = system: EGFR(L858R); settings: at 1 μM
# How it was run: (§2)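 Steps: biotinylated ligand loaded onto streptavidin beads (30 min RT), then biotin-blocked; kinase, beads and compound combined in SeaBlock/PBS/Tween/DTT buffer for 1 h RT; beads washed; kinase eluted with 0.5 μM non-biotinylated ligand; eluate quantified by qPCR.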
# [14] = system: EGFR; settings: at 1 μM
# How it was run: as §1
# [15] = system: EPHA1; settings: at 1 μM
# How it was run: as §2
# [16] = system: EPHA2; settings: at 1 μM
# How it was run: as §2
# [17] = system: EPHA7; settings: at 1 μM
# How it was run: as §2
# [18] = system: EPHB1; settings: at 1 μM
# How it was run: as §1
# [19] = system: ERBB2; settings: at 1 μM
# How it was run: as §1
# [20] = system: ERBB4; settings: at 1 μM
# How it was run: as §1
# [21] = system: FER; settings: at 1 μM
# How it was run: as §1
# [22] = system: FGFR3; settings: at 1 μM
# How it was run: as §1
# [23] = system: FGR; settings: at 1 μM
# How it was run: as §1
# [24] = system: FLT3(D835V); settings: at 1 μM
# How it was run: as §1
# [25] = system: FLT3(K663Q); settings: at 1 μM
# How it was run: as §1
# [26] = system: FLT4; settings: at 1 μM
# How it was run: as §1
# [27] = system: ITK; settings: at 1 μM
# How it was run: as §1
# [28] = system: JAK1(JH2domain-pseudokinase); settings: for % Ctrl: JAK1(JH2domain-pseudokinase), at 1 μM; for pKd: read-out: JAK1(JH2 domain-pseudokinase) Kd
# How it was run: as §1
# [29] = system: KIT(V559D); settings: at 1 μM
# How it was run: as §1
# [30] = system: KIT(V559D, T670I); settings: at 1 μM
# How it was run: as §1
# [31] = system: KIT; settings: at 1 μM
# How it was run: as §1
# [32] = system: LCK; settings: at 1 μM
# How it was run: as §1
# [33] = system: MET(M1250T); settings: at 1 μM
# How it was run: as §1
# [34] = system: MUSK; settings: at 1 μM
# How it was run: as §1
# [35] = system: PDGFRB; settings: at 1 μM
# How it was run: as §1
# [36] = system: SRMS; settings: at 1 μM
# How it was run: as §1
# [37] = system: TIE1; settings: at 1 μM
# How it was run: as §1
# [38] = system: TIE2; settings: at 1 μM
# How it was run: as §1
# [39] = system: TNK1; settings: at 1 μM
# How it was run: as §1
# [40] = system: TYK2(JH2domain-pseudokinase); settings: for % Ctrl: TYK2(JH2domain-pseudokinase), at 1 μM; for pKd: read-out: TYK2(JH2 domain-pseudokinase) Kd
# How it was run: as §2
smiles,measurement,setting,value
"Cc1cc2c([nH]1)/C=C1\C(=O)Nc3ccc(cc31)-c1c(nn(C)c1C)OCCCN(C)C2=O [Cpd. 1, [3a(4)Z]-6,9,15,16-tetramethyl-9,10,11,12-tetrahydro-15H-1,17-(ethanediylidene)pyrazolo[4,3-n]dipyrrolo[3,2-g:3′,4′-j][1,5]oxazacyclopentadecine-3,8(2H,5H)-dione]",% Ctrl,[1],91%
same,% Ctrl,[2],83%
same,% Ctrl,[3],86%
same,% Ctrl,[4],99%
same,% Ctrl,[5],92%
same,% Ctrl,[6],87%
same,% Ctrl,[7],87%
same,% Ctrl,[8],67%
same,% Ctrl,[9],82%
same,% Ctrl,[10],97%
same,% Ctrl,[11],100%
same,% Ctrl,[12],100%
same,% Ctrl,[13],100%
same,% Ctrl,[14],100%
same,% Ctrl,[15],100%
same,% Ctrl,[16],97%
same,% Ctrl,[17],91%
same,% Ctrl,[18],87%
same,% Ctrl,[19],98%
same,% Ctrl,[20],95%
same,% Ctrl,[21],97%
same,% Ctrl,[22],96%
same,% Ctrl,[23],91%
same,% Ctrl,[24],61%
same,% Ctrl,[25],80%
same,% Ctrl,[26],94%
same,% Ctrl,[27],89%
same,% Ctrl,[28],100%
same,% Ctrl,[29],91%
same,% Ctrl,[30],93%
same,% Ctrl,[31],91%
same,% Ctrl,[32],95%
same,% Ctrl,[33],83%
same,% Ctrl,[34],93%
same,% Ctrl,[35],100%
same,% Ctrl,[36],93%
same,% Ctrl,[37],100%
same,% Ctrl,[38],95%
same,% Ctrl,[39],100%
same,% Ctrl,[40],1.5%
same,pKd,[40],6.66
"Cc1cc2c([nH]1)/C=C1\C(=O)Nc3ccc(cc31)-c1c(nn(C)c1C)COCCN(C)C2=O [Cpd. 2, [3a(4)Z]-6,9,15,16-tetramethyl-10,11,13,15-tetrahydro-2H-1,17-(ethanediylidene)pyrazolo[4,3-m]dipyrrolo[3,2-f:3′,4′-i][1,4]oxazacyclopentadecine-3,8(5H,9H)-dione]",% Ctrl,[1],100%
same,% Ctrl,[2],87%
same,% Ctrl,[3],78%
same,% Ctrl,[4],62%
same,% Ctrl,[5],60%
same,% Ctrl,[6],55%
same,% Ctrl,[7],100%
same,% Ctrl,[8],95%
same,% Ctrl,[9],100%
same,% Ctrl,[10],100%
same,% Ctrl,[11],85%
same,% Ctrl,[12],100%
same,% Ctrl,[13],78%
same,% Ctrl,[14],66%
same,% Ctrl,[15],100%
same,% Ctrl,[16],85%
same,% Ctrl,[17],89%
same,% Ctrl,[18],99%
same,% Ctrl,[19],100%
same,% Ctrl,[20],67%
same,% Ctrl,[21],100%
same,% Ctrl,[22],88%
same,% Ctrl,[23],100%
same,% Ctrl,[24],7.9%
same,% Ctrl,[25],47%
same,% Ctrl,[26],19%
same,% Ctrl,[27],80%
same,% Ctrl,[28],30%
same,% Ctrl,[29],98%
same,% Ctrl,[30],82%
same,% Ctrl,[31],100%
same,% Ctrl,[32],100%
same,% Ctrl,[33],98%
same,% Ctrl,[34],100%
same,% Ctrl,[35],79%
same,% Ctrl,[36],90%
same,% Ctrl,[37],61%
same,% Ctrl,[38],63%
same,% Ctrl,[39],92%
same,% Ctrl,[40],0.6%
same,pKd,[40],8.92
"Cc1cc2c([nH]1)/C=C1\C(=O)Nc3c(Cl)cc(cc31)-c1cn(C)nc1COC[C@@H](C)NC2=O [Cpd. 3, [3a(4)Z,10R]-20-chloro-6,10,15-trimethyl-10,11,13,15-tetrahydro-2H-1,17-(ethanediylidene)pyrazolo[4,3-m]dipyrrolo[3,2-f:3′,4′-i][1,4]oxazacyclopentadecine-3,8(5H,9H)-dione]",% Ctrl,[1],100%
same,% Ctrl,[2],95%
same,% Ctrl,[3],93%
same,% Ctrl,[4],100%
same,% Ctrl,[5],91%
same,% Ctrl,[6],92%
same,% Ctrl,[7],100%
same,% Ctrl,[8],91%
same,% Ctrl,[9],71%
same,% Ctrl,[10],98%
same,% Ctrl,[11],90%
same,% Ctrl,[12],90%
same,% Ctrl,[13],96%
same,% Ctrl,[14],79%
same,% Ctrl,[15],85%
same,% Ctrl,[16],93%
same,% Ctrl,[17],100%
same,% Ctrl,[18],100%
same,% Ctrl,[19],100%
same,% Ctrl,[20],96%
same,% Ctrl,[21],73%
same,% Ctrl,[22],89%
same,% Ctrl,[23],98%
same,% Ctrl,[24],100%
same,% Ctrl,[25],100%
same,% Ctrl,[26],100%
same,% Ctrl,[27],100%
same,% Ctrl,[28],3.1%
same,pKd,[28],6.92
same,% Ctrl,[29],100%
same,% Ctrl,[30],100%
same,% Ctrl,[31],100%
same,% Ctrl,[32],87%
same,% Ctrl,[33],100%
same,% Ctrl,[34],98%
same,% Ctrl,[35],100%
same,% Ctrl,[36],69%
same,% Ctrl,[37],93%
same,% Ctrl,[38],97%
same,% Ctrl,[39],94%
same,% Ctrl,[40],0%
same,pKd,[40],8.52
"C[C@@H]1COCc2nn(C)cc2-c2cc(Cl)c3c(c2)/C(=C/c2[nH]ccc2C(=O)N1)C(=O)N3 [Cpd. 4, [3a(4)Z,10R]-20-chloro-10,15-dimethyl-10,11,13,15-tetrahydro-2H-1,17-(ethanediylidene)pyrazolo[4,3-m]dipyrrolo[3,2-f:3′,4′-i][1,4]oxazacyclopentadecine-3,8(5H,9H)-dione]",% Ctrl,[1],95%
same,% Ctrl,[2],96%
same,% Ctrl,[3],90%
same,% Ctrl,[4],89%
same,% Ctrl,[5],79%
same,% Ctrl,[6],84%
same,% Ctrl,[7],100%
same,% Ctrl,[8],93%
same,% Ctrl,[9],75%
same,% Ctrl,[10],20%
same,% Ctrl,[11],75%
same,% Ctrl,[12],90%
same,% Ctrl,[13],95%
same,% Ctrl,[14],82%
same,% Ctrl,[15],71%
same,% Ctrl,[16],96%
same,% Ctrl,[17],100%
same,% Ctrl,[18],97%
same,% Ctrl,[19],100%
same,% Ctrl,[20],100%
same,% Ctrl,[21],68%
same,% Ctrl,[22],87%
same,% Ctrl,[23],100%
same,% Ctrl,[24],75%
same,% Ctrl,[25],90%
same,% Ctrl,[26],100%
same,% Ctrl,[27],99%
same,% Ctrl,[28],0.25%
same,pKd,[28],7.54
same,% Ctrl,[29],100%
same,% Ctrl,[30],94%
same,% Ctrl,[31],100%
same,% Ctrl,[32],88%
same,% Ctrl,[33],100%
same,% Ctrl,[34],98%
same,% Ctrl,[35],100%
same,% Ctrl,[36],68%
same,% Ctrl,[37],84%
same,% Ctrl,[38],91%
same,% Ctrl,[39],94%
same,% Ctrl,[40],0.2%
same,pKd,[40],8.72
